# Laboratory results as given in patent publication US6645918B1, “N-([1,2,4]triazoloazinyl)thiophenesulfonamide compounds and their use as herbicides” (Dow AgroSciences LLC, priority 2000, dated 2003).
# Tests used:
# Assay type in all cases: in vivo
# [1] = system: morningglory (Ipomoea hederacea); assay: Preemergence herbicidal activity, morningglory; conditions: soil spray, visual after 3 weeks, 0 no injury, 100 complete kill or no germination
# Outline: (§1)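 First, pots were seeded. Next, the soil was sprayed with compound solutions in water/Tween 155 (0.1%) containing acetone/DMSO, up to 4.48 kg/ha. Then pots were held in a greenhouse with roughly 15 h days at 23-29 °C and nights at 22-28 °C. Finally, injury was scored visually after 3 weeks.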
# [2] = system: lambsquarters (Chenopodium album); assay: Preemergence herbicidal activity, lambsquarters; conditions: soil spray, visual after 3 weeks, 0 no injury, 100 complete kill or no germination
# Outline: as §1
# [3] = system: pigweed (Amaranthus retroflexus); assay: Postemergence herbicidal activity, pigweed; conditions: foliar spray, visual after 2 weeks, 0 no injury, 100 complete kill
# Outline: (§2)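 Greenhouse-grown plants at first or second true leaf stage were sprayed with compound in aqueous acetone/DMSO/isopropanol carrier containing crop oil concentrate and Triton X-155; 1 ppm corresponds to about 1 g/ha. Plants were sub-irrigated, and visual injury versus untreated plants was scored 0–100% after 2 weeks.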
# viola (Viola tricolor) = assay: Postemergence herbicidal activity, viola; conditions: foliar spray, visual after 2 weeks, 0 no injury, 100 complete kill
# Outline: as §2
# [4] = system: giant foxtail (Setaria faberi); assay: Preemergence herbicidal activity, giant foxtail; conditions: soil spray, visual after 3 weeks, 0 no injury, 100 complete kill or no germination
# Outline: as §1
# [5] = system: cocklebur (Xanthium strumarium); assay: Preemergence herbicidal activity, cocklebur; conditions: soil spray, visual after 3 weeks, 0 no injury, 100 complete kill or no germination
# Outline: as §1
# [6] = system: Rox orange sorghum (Sorghum bicolor); assay: Preemergence herbicidal activity, Rox orange sorghum; conditions: soil spray, visual after 3 weeks, 0 no injury, 100 complete kill or no germination
# Outline: as §1
# [7] = system: wild buckwheat (Polygonum convolvulus); assay: Postemergence herbicidal activity, wild buckwheat; conditions: foliar spray, visual after 2 weeks, 0 no injury, 100 complete kill
# Outline: as §2
# [8] = system: blackgrass (Alopecurus myosuroides); assay: Postemergence herbicidal activity, blackgrass; conditions: foliar spray, visual after 2 weeks, 0 no injury, 100 complete kill
# Outline: as §2
# [9] = system: pigweed (Amaranthus retroflexus); assay: Preemergence herbicidal activity, pigweed; conditions: soil spray, visual after 3 weeks, 0 no injury, 100 complete kill or no germination
# Outline: as §1
# [10] = system: barnyardgrass (Echinochloa crus-galli); assay: Preemergence herbicidal activity, barnyardgrass; conditions: soil spray, visual after 3 weeks, 0 no injury, 100 complete kill or no germination
# Outline: as §1
# [11] = system: morningglory (Ipomoea hederacea); assay: Postemergence herbicidal activity, morningglory; conditions: foliar spray, visual after 2 weeks, 0 no injury, 100 complete kill
# Outline: as §2
# [12] = system: wild poinsettia (Euphorbia heterophylla); assay: Preemergence herbicidal activity, wild poinsettia; conditions: soil spray, visual after 3 weeks, 0 no injury, 100 complete kill or no germination
# Outline: as §1
# [13] = system: velvetleaf (Abutilion theophrasti); assay: Postemergence herbicidal activity, velvetleaf; conditions: foliar spray, visual after 2 weeks, 0 no injury, 100 complete kill
# Outline: as §2
# wild oats (Avena fatua) [14] = assay: Postemergence herbicidal activity, wild oats; conditions: foliar spray, visual after 2 weeks, 0 no injury, 100 complete kill
# Outline: as §2
# [15] = system: Rox orange sorghum (Sorghum bicolor); assay: Postemergence herbicidal activity, Rox orange sorghum; conditions: foliar spray, visual after 2 weeks, 0 no injury, 100 complete kill
# Outline: as §2
# [16] = system: crabgrass (Digitaria sanguinalis); assay: Preemergence herbicidal activity, crabgrass; conditions: soil spray, visual after 3 weeks, 0 no injury, 100 complete kill or no germination
# Outline: as §1
# [17] = system: cocklebur (Xanthium strumarium); assay: Postemergence herbicidal activity, cocklebur; conditions: foliar spray, visual after 2 weeks, 0 no injury, 100 complete kill
# Outline: as §2
# [18] = system: lambsquarters (Chenopodium album); assay: Postemergence herbicidal activity, lambsquarters; conditions: foliar spray, visual after 2 weeks, 0 no injury, 100 complete kill
# Outline: as §2
# [19] = system: chickweed (Stellaria media); assay: Postemergence herbicidal activity, chickweed; conditions: foliar spray, visual after 2 weeks, 0 no injury, 100 complete kill
# Outline: as §2
# [20] = system: velvetleaf (Abutilion theophrasti); assay: Preemergence herbicidal activity, velvetleaf; conditions: soil spray, visual after 3 weeks, 0 no injury, 100 complete kill or no germination
# Outline: as §1
# [21] = system: giant foxtail (Setaria faberi); assay: Postemergence herbicidal activity, giant foxtail; conditions: foliar spray, visual after 2 weeks, 0 no injury, 100 complete kill
# Outline: as §2
# [22] = system: blackgrass (Alopecurus myosuroides); assay: Preemergence herbicidal activity, blackgrass; conditions: soil spray, visual after 3 weeks, 0 no injury, 100 complete kill or no germination
# Outline: as §1
# wild oats (Avena fatua) [23] = assay: Preemergence herbicidal activity, wild oats; conditions: soil spray, visual after 3 weeks, 0 no injury, 100 complete kill or no germination
# Outline: as §1
SMILES,AMARE postemergence injury score 0-100 ([3]; 31.3 ppm),VIOTR postemergence injury score 0-100 (viola (Viola tricolor); 31.3 ppm),POLCO postemergence injury score 0-100 ([7]; 31.3 ppm),ALOMY postemergence injury score 0-100 ([8]; 31.3 ppm),IPOHE postemergence injury score 0-100 ([11]; 31.3 ppm),ABUTH postemergence injury score 0-100 ([13]; 31.3 ppm),AVEFA postemergence injury score 0-100 (wild oats (Avena fatua) [14]; 31.3 ppm),SORBI postemergence injury score 0-100 ([15]; 31.3 ppm),IPOHE preemergence injury score 0-100 ([1]; 35 g/Ha),CHEAL preemergence injury score 0-100 ([2]; 35 g/Ha),SETFA preemergence injury score 0-100 ([4]; 35 g/Ha),XANST preemergence injury score 0-100 ([5]; 35 g/Ha),SORBI preemergence injury score 0-100 ([6]; 35 g/Ha),AMARE preemergence injury score 0-100 ([9]; 35 g/Ha),ECHCG preemergence injury score 0-100 ([10]; 35 g/Ha),EPHHL preemergence injury score 0-100 ([12]; 35 g/Ha),DIGSA preemergence injury score 0-100 ([16]; 35 g/Ha),ABUTH preemergence injury score 0-100 ([20]; 35 g/Ha),ALOMY preemergence injury score 0-100 ([22]; 35 g/Ha),AVEFA preemergence injury score 0-100 (wild oats (Avena fatua) [23]; 35 g/Ha),other results
COc1csc(Cl)c1S(=O)(=O)Nc1nc2c(Cl)cnc(OC)n2n1 [Compound 20],95%,90%,90%,30%,75%,85%,70%,85%,,,,,,,,,,,,,IPOHE preemergence injury score 0-100 ([1]; 17.5 g/Ha): 70%; CHEAL preemergence injury score 0-100 ([2]; 17.5 g/Ha): 70%; SETFA preemergence injury score 0-100 ([4]; 17.5 g/Ha): 50%; XANST preemergence injury score 0-100 ([5]; 17.5 g/Ha): 60%; SORBI preemergence injury score 0-100 ([6]; 17.5 g/Ha): 90%; AMARE preemergence injury score 0-100 ([9]; 17.5 g/Ha): 80%; ECHCG preemergence injury score 0-100 ([10]; 17.5 g/Ha): 95%; EPHHL preemergence injury score 0-100 ([12]; 17.5 g/Ha): 50%; DIGSA preemergence injury score 0-100 ([16]; 17.5 g/Ha): 85%; XANST postemergence injury score 0-100 ([17]; 31.3 ppm): 100%; CHEAL postemergence injury score 0-100 ([18]; 31.3 ppm): 75%; STEME postemergence injury score 0-100 ([19]; 31.3 ppm): 85%; ABUTH preemergence injury score 0-100 ([20]; 17.5 g/Ha): 80%; SETFA postemergence injury score 0-100 ([21]; 31.3 ppm): 50%; ALOMY preemergence injury score 0-100 ([22]; 17.5 g/Ha): 90%; AVEFA preemergence injury score 0-100 (wild oats (Avena fatua) [23]; 17.5 g/Ha): 90%
COc1cc(Cl)sc1S(=O)(=O)Nc1nc2c(OC)cnc(OC)n2n1 [Compound 3],,,,,,,,,60%,95%,90%,70%,90%,95%,70%,70%,95%,50%,80%,70%,AMARE postemergence injury score 0-100 ([3]; 31 ppm): 100%; VIOTR postemergence injury score 0-100 (viola (Viola tricolor); 31 ppm): 80%; POLCO postemergence injury score 0-100 ([7]; 31 ppm): 85%; ALOMY postemergence injury score 0-100 ([8]; 31 ppm): 70%; IPOHE postemergence injury score 0-100 ([11]; 31 ppm): 70%; ABUTH postemergence injury score 0-100 ([13]; 31 ppm): 70%; AVEFA postemergence injury score 0-100 (wild oats (Avena fatua) [14]; 31 ppm): 80%; SORBI postemergence injury score 0-100 ([15]; 31 ppm): 90%; XANST postemergence injury score 0-100 ([17]; 31 ppm): 100%; CHEAL postemergence injury score 0-100 ([18]; 31 ppm): 95%; STEME postemergence injury score 0-100 ([19]; 31 ppm): 70%; SETFA postemergence injury score 0-100 ([21]; 31 ppm): 85%
COc1csc(C)c1S(=O)(=O)Nc1nc2c(Cl)cnc(OC)n2n1 [Compound 22],100%,80%,90%,60%,90%,70%,50%,95%,98%,98%,100%,80%,100%,100%,100%,80%,98%,100%,70%,70%,XANST postemergence injury score 0-100 ([17]; 31.3 ppm): 90%; CHEAL postemergence injury score 0-100 ([18]; 31.3 ppm): 90%; STEME postemergence injury score 0-100 ([19]; 31.3 ppm): 80%; SETFA postemergence injury score 0-100 ([21]; 31.3 ppm): 80%
COc1cscc1S(=O)(=O)Nc1nc2c(OC)ccc(OC)n2n1 [Compound 16],,,,,,,,,0%,80%,0%,40%,0%,60%,0%,0%,30%,40%,100%,0%,AMARE postemergence injury score 0-100 ([3]; 15.6 ppm): 95%; VIOTR postemergence injury score 0-100 (viola (Viola tricolor); 15.6 ppm): 70%; POLCO postemergence injury score 0-100 ([7]; 15.6 ppm): 90%; ALOMY postemergence injury score 0-100 ([8]; 15.6 ppm): 85%; IPOHE postemergence injury score 0-100 ([11]; 15.6 ppm): 60%; ABUTH postemergence injury score 0-100 ([13]; 15.6 ppm): 80%; AVEFA postemergence injury score 0-100 (wild oats (Avena fatua) [14]; 15.6 ppm): 80%; SORBI postemergence injury score 0-100 ([15]; 15.6 ppm): 90%; XANST postemergence injury score 0-100 ([17]; 15.6 ppm): 95%; CHEAL postemergence injury score 0-100 ([18]; 15.6 ppm): 95%; STEME postemergence injury score 0-100 ([19]; 15.6 ppm): 90%; SETFA postemergence injury score 0-100 ([21]; 15.6 ppm): 90%
COc1cc(OC)n2nc(NS(=O)(=O)c3sc(Cl)cc3OC)nc2n1 [Compound 4],,,,,,,,,50%,80%,90%,0%,80%,100%,0%,40%,90%,70%,95%,60%,AMARE postemergence injury score 0-100 ([3]; 15.6 ppm): 100%; VIOTR postemergence injury score 0-100 (viola (Viola tricolor); 15.6 ppm): 60%; POLCO postemergence injury score 0-100 ([7]; 15.6 ppm): 90%; ALOMY postemergence injury score 0-100 ([8]; 15.6 ppm): 70%; IPOHE postemergence injury score 0-100 ([11]; 15.6 ppm): 60%; ABUTH postemergence injury score 0-100 ([13]; 15.6 ppm): 70%; AVEFA postemergence injury score 0-100 (wild oats (Avena fatua) [14]; 15.6 ppm): 60%; SORBI postemergence injury score 0-100 ([15]; 15.6 ppm): 70%; XANST postemergence injury score 0-100 ([17]; 15.6 ppm): 60%; CHEAL postemergence injury score 0-100 ([18]; 15.6 ppm): 90%; STEME postemergence injury score 0-100 ([19]; 15.6 ppm): 60%; SETFA postemergence injury score 0-100 ([21]; 15.6 ppm): 85%
